Test results published in paper PMC10388362, “Fluorescent Ligands Enable Target Engagement Studies for the Intracellular Allosteric Binding Site of the Chemokine Receptor CXCR2” (Journal of Medicinal Chemistry, 2023).
Values joined by “and” are separate entries in the source; they are usually repeats but may differ in a detail not shown here. Identical values can stand only once. Like-named read-outs stand apart in the source and are kept apart here. Each block holds one compound with its values, some of them ahead of it.

Tests used:
CXCR2 [1] = molecular target: T1, CXCR2 (Homo sapiens, UniProt P25025); experiment: Fluorescence microscopy, displacement of 9a in HEK293 cells stably expressing CXCR2; type: cell-based; conditions: 9a 500 nM
T1 construct: Promega pNLF1-C (Nluc) #CXCR20TN00; host or cells: HEK293T, transient transfection (PEI)
T1 sequence (P25025 1-360): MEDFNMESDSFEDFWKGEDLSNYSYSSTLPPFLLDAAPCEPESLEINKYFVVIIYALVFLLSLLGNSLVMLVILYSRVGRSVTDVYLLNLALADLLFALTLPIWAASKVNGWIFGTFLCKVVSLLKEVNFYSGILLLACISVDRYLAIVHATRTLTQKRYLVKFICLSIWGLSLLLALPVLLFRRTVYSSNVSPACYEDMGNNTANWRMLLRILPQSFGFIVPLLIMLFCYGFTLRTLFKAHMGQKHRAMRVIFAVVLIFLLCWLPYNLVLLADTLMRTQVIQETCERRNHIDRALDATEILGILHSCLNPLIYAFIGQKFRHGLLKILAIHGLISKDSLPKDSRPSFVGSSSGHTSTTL
Description: For live cell microscopy, HEK293 cells stably expressing CXCR2 were seeded onto poly-D-lysine (PDL)-coated 8-well μ-slides (Ibidi) at a density of 1.5 × 10^5 cells per well and cultured overnight at 37 °C and 5% CO2. […] Afterward, the fluorescent CXCR2 ligand ((9a) final concentration 500 nM) was added for 60 min at 37 °C, and the cells were washed once with PBS before imaging. For immunostaining, the cells were first fixed with 4% paraformaldehyde solution, washed with PBS, and then blocked for 1 h with 10% goat serum and 1% fatty acid-free bovine serum albumin (BSA) in PBS at 37 °C. As primary antibody, anti-CXCR2 mouse IgG (R&D Systems, catalog # 48311, 1:100 in blocking solution) was added, and the cells were incubated for 1 h at 37 °C. After three washes with PBS, goat anti-mouse IgG (H+L) conjugated to FITC (Sigma-Aldrich, catalog # AP124F, 1:500 in blocking solution) was added for 1 h at 37 °C. The cells were again washed three times with PBS and counterstained with 4′,6-diamidin-2-phenylindole (DAPI) solution (0.1 μg/mL) for 15 min in the dark at room temperature, followed by three washes with PBS. […] Afterward, the fluorescent CXCR2 ligand ((9a) final concentration 500 nM) was added for 30 min at 37 °C and the cells were imaged. Microscopy was carried out on an AxioObserver.Z1 microscope (Carl Zeiss, Jena, Germany) equipped with an ApoTome imaging system and a Heating unit XL S using a Plan-Apochromat ×63/1.40 Oil objective (filter set 43 (red), 38 (green), 49 (blue)). Image processing and line scan analysis were performed with Zen blue Imaging software. The fluorescence intensity values were normalized to vehicle control.

CXCR2 [2] = molecular target: T1, CXCR2; experiment: Membrane-based NanoBRET competition assay with 9a; type: binding; conditions: for % comp. @ 70 μM: competitor 70 μM, 9a (50 nM)
Description: Then, 20 μL of the membrane preparation (diluted in assay buffer, 2 μg total protein/well) was added and the plates were incubated for 90 min at 37 °C. Subsequently, 5 μL of a furimazine solution (final assay dilution: 1:5000 in the assay buffer) was added to each well (final assay volume: 35 μL). […] To determine the inhibition constants (Ki) of the nonlabeled ligands, data were analyzed using the one-site-fit Ki equation in PRISM9.5 (GraphPad).

CXCR2 [3] = molecular target: T1, CXCR2; experiment: Membrane-based NanoBRET saturation assay (CXCR2_Nluc membranes); type: binding; conditions: cell-free
Description: Membranes from HEK293T cells transiently expressing the respective GPCR were prepared as follows. The medium of the transfected cells was refreshed after 24 h before cells were harvested 48 h post-transfection. The growth medium was removed, and the cells were carefully washed with cold phosphate-buffered saline (10 mL per Ø 15 cm dish). The cells were detached with 15 mL of ice-cold Tris-EDTA buffer (10 mM Tris, 0.5 mM EDTA, 5.4 mM KCl, 140 mM NaCl, pH 7.4) and subsequently centrifuged with 218g for 8 min. The supernatant was removed and the cells were resuspended in 10 mL of Tris-EDTA buffer. The cells were lysed with an Ultraturrax (20,000 rpm) used five times for 5 s with a 25 s break on ice in between. The lysate was centrifuged at 50,830g for 18 min at 4 °C. The supernatant was discarded, and the pellet was homogenized in a membrane buffer (50 mM Tris, 1 mM EDTA, 5 mM MgCl2, 100 μg/mL bacitracin, 5 μg/mL soybean trypsin inhibitor, pH 7.4) with a glass-teflon homogenizer. Aliquots of 250 μL were shock-frozen in liquid nitrogen and directly stored at −80 °C. Finally, the protein concentration was determined using the Lowry method.[43]
(§1) For the establishment of our NanoBRET binding assay, we referred to a recently published protocol.[45] The fluorescent ligands (9a–c) were dissolved in DMSO (1 mM) and further diluted to varying concentrations in an assay buffer (50 mM Na2HPO4, 50 mM KH2PO4, pH 7.4, 1 mg/mL saponin, 5% FBS) and 5 μL of these dilutions were pipetted to a 384-well plate. To determine the total binding, 5 μL of the assay buffer was added to the corresponding wells, while 5 μL of a solution of 3 in the assay buffer (final assay concentration: 1 μM) was used to determine nonspecific binding. Then, 20 μL of the membrane preparations diluted in the assay buffer (2 μg total protein/well) were added and the plates were incubated for 90 min at 37 °C. Subsequently, 5 μL of a furimazine solution (Promega, Mannheim, Germany, final assay dilution: 1:5000) was added to each well (final assay volume: 35 μL) before measuring luminescence with a CLARIOstar microplate reader using 620/10 and 475/30 nm emission filters after 5 min of incubation in the dark. Bioluminescence resonance energy transfer (BRET) was determined as the ratio of acceptor fluorescence and donor luminescence. The algorithms for one-site saturation binding from PRISM9.5 (GraphPad) were utilized to analyze total, nonspecific, and specific binding. Specific binding signals were calculated as a difference of total and nonspecific binding. If required, netBRET values were calculated as the difference between total BRET values and the values obtained in the absence of a fluorescent ligand. For selectivity studies with CCR2, CCR7, CCR9, and CXCR1, we modified the procedure described above.

CXCR1 = molecular target: T2, CXCR1 (Homo sapiens, UniProt P25024); experiment: Membrane-based NanoBRET saturation assay, selectivity (CXCR1_Nluc membranes); type: binding; conditions: cell-free, CXCR1_Nluc membranes
T2 construct: host or cells: HEK293T, transient; membrane preparation
T2 sequence (P25024 1-350): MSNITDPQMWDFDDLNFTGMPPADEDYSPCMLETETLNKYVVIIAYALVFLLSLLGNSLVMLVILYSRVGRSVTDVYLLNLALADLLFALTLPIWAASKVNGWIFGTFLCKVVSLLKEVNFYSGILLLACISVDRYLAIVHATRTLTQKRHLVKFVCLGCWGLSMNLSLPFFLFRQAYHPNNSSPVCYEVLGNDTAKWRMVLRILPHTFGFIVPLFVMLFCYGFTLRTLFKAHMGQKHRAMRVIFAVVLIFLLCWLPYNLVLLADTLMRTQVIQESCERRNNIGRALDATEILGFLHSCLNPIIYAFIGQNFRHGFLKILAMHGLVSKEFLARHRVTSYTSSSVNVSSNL
Description: as §1

CXCR2 [4] = molecular target: T1, CXCR2; conditions: cited from earlier work
[5] = Ki of nonfluorescent ligands, cell-free, read-out: cell-free Kd or Ki for CXCR2
[6] = competition with 9a (50 nM), CXCR2_Nluc membranes, read-out: Ki
[7] = competition with 9a (50 nM), CXCR2_Nluc membranes, read-out: pKi (converted)
[8] = membranes from HEK293T cells transiently expressing CXCR2_Nluc, read-out: Kd (equilibrium saturation binding)

Structure (SMILES): CC[C@@H](Nc1c(Nc2cccc(C(=O)N(C)C)c2O)c(=O)c1=O)c1ccc(C)o1 [compound 2, navarixin]
effect of preincubation on membrane-associated 9a fluorescence (CXCR2 [1]; fixed HEK293 cells stably expressing CXCR2, competitor 10 μM): virtually blunted all membrane-associated probe fluorescence
effect of preincubation on membrane-based 9a fluorescence (CXCR2 [1]; live cell imaging, HEK293 cells stably expressing CXCR2, competitor 10 μM): very strong reduction in membrane-based fluorescence

Ki (CXCR2 [2]; [5]): 2700 nM
Ki (CXCR2 [2]; [6]): ≥ 261 nM
Ki (CXCR2 [2]; [7]): 2630 nM
Structure (SMILES): CC(=O)C1=C(O)C(=O)N(c2ccc(Br)cc2F)C1C1CCCCC1 (stereo not drawn) [compound 20]

Ki (CXCR2 [2]; [7]): 0.427 nM
Structure (SMILES): COCCn1cc(CNC(=O)c2cccc(Nc3c(N[C@@H](c4ccc(C)o4)C(C)(C)C)c(=O)c3=O)c2O)nn1 [compound 8, (R)-3-((2-((2,2-Dimethyl-1-(5-methylfuran-2-yl)propyl)amino)-3,4-dioxocyclobut-1-en-1-yl)amino)-2-hydroxy-N-((1-(2-methoxyethyl)-1H-1,2,3-triazol-4-yl)methyl)benzamide]

Ki (CXCR2 [2]; [5]): 261 nM
Ki (CXCR2 [2]; [6]): ≥ 261 nM and 300 nM
Ki (CXCR2 [2]; [7]): 251 nM
Structure (SMILES): Cc1ccc([C@H](NC2=NS(=O)(=O)N=C2Nc2ccc(C)c(C(=O)N(C)C)c2O)C(C)(C)C)o1 [compound 22]

Kd (CXCR2 [3]; Kd of fluorescent ligands, read-out: cell-free Kd or Ki for CXCR2): 2 nM
Kd (CXCR2 [3]; [8]): 2.62 ± 0.78 nM
Kd (CXCR1): 49.3 ± 0.7 nM
Structure (SMILES): Cc1ccc([C@H](Nc2c(Nc3cccc(C(=O)NCc4cn(CCCNC(=O)c5ccc(-c6c7ccc(=[N+](C)C)cc-7oc7cc(N(C)C)ccc67)c(C(=O)[O-])c5)nn4)c3O)c(=O)c2=O)C(C)(C)C)o1 [9c, (R)-5-((3-(4-((3-((2-((2,2-Dimethyl-1-(5-methylfuran-2-yl)propyl)amino)-3,4-dioxocyclobut-1-en-1-yl)amino)-2-hydroxybenzamido)methyl)-1H-1,2,3-triazol-1-yl)propyl)carbamoyl)-2-(6-(dimethylamino)-3-(dimethyliminio)-3H-xanthen-9-yl)benzoate]

Kd (CXCR2 [3]; [8]): 4.62 ± 0.87 nM
Kd (CXCR1): 122 ± 5.6 nM
Structure (SMILES): Cc1ccc([C@H](Nc2c(Nc3cccc(C(=O)NCc4cn(CCOCCOCCNC(=O)c5ccc(C(=O)[O-])c(-c6c7ccc(=[N+](C)C)cc-7oc7cc(N(C)C)ccc67)c5)nn4)c3O)c(=O)c2=O)C(C)(C)C)o1 [9b, (R)-4-((2-(2-(2-(4-((3-((2-((2,2-Dimethyl-1-(5-methylfuran-2-yl)propyl)amino)-3,4-dioxocyclobut-1-en-1-yl)amino)-2-hydroxybenzamido)methyl)-1H-1,2,3-triazol-1-yl)ethoxy)ethoxy)ethyl)carbamoyl)-2-(6-(dimethylamino)-3-(dimethyliminio)-3H-xanthen-9-yl)benzoate]

cell-free Kd or Ki for CXCR2 [nM] (CXCR2 [2]; Ki of nonfluorescent ligands, cell-free): n.i.
Ki (CXCR2 [2]; [6]): ≥ 261 nM
% comp. @ 70 μM (CXCR2 [2]; CXCR2_Nluc membranes): -3%
Structure (SMILES): CC(C)(C)c1ccc(S(=O)(=O)Nc2ccc(Cl)cc2C(=O)c2cc[n+]([O-])cc2)cc1 [compound 23, vercirnon]

Structure (SMILES): O=C(Nc1ccc(Cl)c(S(=O)(=O)N2CCNCC2)c1O)Nc1cccc(F)c1Cl [compound 6, elubrixin]
IC50 (CXCR2 [4]; reported value ref 17): 22 nM

Ki (CXCR2 [2]; [6]): ≥ 261 nM
% comp. @ 70 μM (CXCR2 [2]; CXCR2_Nluc membranes): 28%
Structure (SMILES): CC(C)(C)c1ccc(S(=O)(=O)Nc2ccc(Cl)cc2-c2cncnc2N)cc1 [compound 24]

Structure (SMILES): CC[C@@H](Nc1c(Nc2ccnc(C(=O)N(C)C)c2O)c(=O)c1=O)c1cc(C(C)C)co1 [compound 1]
IC50 (CXCR2 [4]; reported value ref 4): 0.62 nM

Ki (CXCR2 [2]; [5]): 4900 nM
Ki (CXCR2 [2]; [6]): ≥ 261 nM
Ki (CXCR2 [2]; [7]): 4680 nM
Structure (SMILES): O=C(O)c1ccccc1Oc1ccc(Cl)cc1NS(=O)(=O)c1ccc(Cl)c(Cl)c1 [compound 21]
